Results as given in article PMC3341389, “Spiroindolines Identify the Vesicular Acetylcholine Transporter as a Novel Target for Insecticide Action” (PLoS ONE, 2012).

How the values were obtained:
D. melanogaster VAChT [1] = biological target: T1, D. melanogaster VAChT (Drosophila melanogaster, UniProt O17444); test: displacement of [3H]-SYN876 from membranes of PC12 cells expressing VAChT; assay type: binding; conditions: competition with [3H]-SYN876
T1 construct: full-length gene cloned by PCR from adult fly cDNA library, Gateway vector, expressed in PC12 cells (rat)
T1 sequence (O17444 1-578): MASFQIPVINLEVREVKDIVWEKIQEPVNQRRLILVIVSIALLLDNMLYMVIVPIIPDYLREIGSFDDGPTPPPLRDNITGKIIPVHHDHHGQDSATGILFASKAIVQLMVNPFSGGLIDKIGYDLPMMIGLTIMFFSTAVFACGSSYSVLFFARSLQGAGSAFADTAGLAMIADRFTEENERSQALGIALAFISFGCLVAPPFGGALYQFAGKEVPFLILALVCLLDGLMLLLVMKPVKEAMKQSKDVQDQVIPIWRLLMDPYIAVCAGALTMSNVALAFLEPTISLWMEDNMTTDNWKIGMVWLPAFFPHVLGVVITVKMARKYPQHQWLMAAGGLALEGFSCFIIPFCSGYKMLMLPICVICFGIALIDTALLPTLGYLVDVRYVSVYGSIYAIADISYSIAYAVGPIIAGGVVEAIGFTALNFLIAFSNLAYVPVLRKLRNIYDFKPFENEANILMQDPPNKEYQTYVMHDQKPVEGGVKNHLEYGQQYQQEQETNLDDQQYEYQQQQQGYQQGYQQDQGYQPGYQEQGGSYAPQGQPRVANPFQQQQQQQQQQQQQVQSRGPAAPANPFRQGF

D. melanogaster VAChT [2] = biological target: T1, D. melanogaster VAChT; test: [3H]-SYN876 saturation binding to membranes of PC12 cells expressing VAChT
D. melanogaster VAChT [3] = biological target: T1, D. melanogaster VAChT; test: inhibition of vesicular acetylcholine uptake, PNS from PC12 cells expressing VAChT; assay type: biochemical; conditions: substrate acetylcholine

Compound: OC1CCCCC1N1CCC(c2ccccc2)CC1 (stereo not shown) [vesamicol]
- IC50 (D. melanogaster VAChT [1]): displaced by the known VAChT inhibitors vesamicol and aminobenzovesamicol (table S3)

Compound: Nc1cccc2c1CC(N1CCC(c3ccccc3)CC1)C(O)C2 (stereo not shown) [aminobenzovesamicol]
- IC50 (D. melanogaster VAChT [1]): displaced by the known VAChT inhibitors vesamicol and aminobenzovesamicol (table S3)

Compound: O=C(c1ccnc(Cl)c1)N1CC2(CCN(C/C=C/c3ccc(Cl)cc3)CC2)c2cc(F)ccc21 [SYN876]
- Kd (D. melanogaster VAChT [2]): 0.04 nM
- IC50 (D. melanogaster VAChT [3]): Inhibition of the acetylcholine transport activity of PNS from the cells
